According to patent US20240173329A1, “BELVARAFENIB FOR USE IN TREATMENT OF BRAIN CANCERS” (Genentech, Inc., priority 2021, published 2024):

Experiments:
[1] = biological target: discoidin domain receptor tyrosine kinase 1 (DDR1) (Homo sapiens, UniProt Q08345); assay: panel of 189 kinase assays; type: biochemical
[2] = system: A375SM-Luc cells harboring the BRAF^V600 mutation; assay: A375SM_Luc cell brain metastasis mouse model; type: in vivo; conditions: for mOS (median overall survival): vehicle 24.5 days; for day from which clinical signs of debility due to tumor growth occurred: vehicle after day 11
Description: The mouse strain was BALB/c Nude (nu/nu) produced and supplied by Orient Bio Inc., Korea.
The mice were kept in conventional animal lab cages for at least one week for acclimation before the start of the experiment. The cages were polysulfone 1291H (W425×D266×H185 mm, Techniplast, Italy). Eight mice were housed in each cage at a temperature of 22±2° C., a relative humidity of 50±20%, a ventilation frequency of 10-15 times/h, a 12 hour light/dark cycle, a light intensity of 150-300 Lux, at least weekly cage replacement. The mice were fed ad libitum Picolab Rodent diet (5053, Lab Diet, USA). Tap water was given ad libitum following UV irradiation and filtration.
The cancer cell line was A375SM-Luc harboring the BRAF^V600 mutation. That cell line was deemed suitable for the efficacy study of RAF inhibitors against BRAF^V600 in melanoma.
The A375SM-Luc cell line was established as follows. A375SM cells were seeded into 24 well clear flat-bottomed plates with 2.5×10^5 cells/well in MEM medium (Gibco, USA) supplemented with 10% FBS (Gibco, USA). The next day, CMV-Firefly luciferase lentivirus (Cellomics Inc., USA) was diluted in complete medium containing 8 μg/mL polybrene (Sigma Aldrich, St. Louis MO, USA). Cells were centrifuged in the prepared medium for 90 minutes at 800×g, followed by incubation in fresh medium for 2 to 3 days. Stable clones were selected using puromycin, and individual clones were screened for luciferase activity be measuring their light emission with the IVIS® Lumina Series III In Vivo Imaging System (PerkinElmer Inc., USA) after adding 10 μL (15 mg/mL) D-Luciferin (Gold Biotechnology, USA). The in vitro media was MEM 10% FBS. The in vitro culture condition was incubation at 5% CO2 at 37° C.
The in vivo cell inoculation was as follows. Mice were anesthetized by intraperitoneal (i.p.) injection of 30 mg/kg Zoletil 50 (Virbac, France) and 10 mg/kg Rompun (Bayer Korea, Korea). Five thousand cells suspended in 10 μL phosphate buffered saline were intracranially injected into the right frontal hemisphere (AP+2.0, ML−1.0, DV+2.0 from the bregma) using a stereotactic fixation device (David Kopf Instruments, USA). Mouse models were produced over two days.
The mice were randomized by their tumor burden by BLI (8 mice per group) after 6-7 days from inoculation (implantation). The mice were then dosed with belvarafenib dihydrochloride, 99.6% purity, that was stored at room temperature. Dosing was based on active ingredient free base and was corrected for assay and water content. The dosing vehicle was DMSO (5%), cremophore EL (5%), and deionized water (90%). Belvarafenib for dosing was dissolved in the vehicle.
Belvarafenib (in groups 2 and 3) and vehicle (in group 1) were dosed at 10 mL/kg (p.o.) once per day (QD) for a duration of 102 days.
Body weight measurement was performed twice a week during the dosing period. Relative body weight (%) was calculated by: body weight Day X (g)/initial body weight (g)×100 (Day X=body weight measurement day). Tumor burden was measured by bioluminescence imaging (BLI) using a IVIS® Lumina Series III In Vivo Imaging System (PerkinElmer Inc., USA) each week. […] Kaplan-Meier survival curves showing prolonged survival of mice of groups 1 to 3 were plotted from the date of drug administration. The median overall survival rate (mOS) was the amount of time after which 50% of the mice had died and 50% had survived.
The data were expressed as means±standard error of the mean (SEM). Statistical analysis was conducted by GraphPad PRISM® Version 6 (GraphPad Software, USA). […] was conducted to evaluate significant differences between the groups. A p value less than 0.05 was considered statistically significant.
Mice were intraperitoneally injected with 15 mg/mL of D-Luciferin on each of days 1, 5, 12, 19, 26, 33, 40, 47, 54, 61, 68, 75, 82, 89, 96, and 103 and evaluated with BLI imaging with an IVIS® Lumina Series III In Vivo Image System (PerkinElmer Inc., USA).

Chain of discoidin domain receptor tyrosine kinase 1 (DDR1) (Q08345 19-913, species assumed): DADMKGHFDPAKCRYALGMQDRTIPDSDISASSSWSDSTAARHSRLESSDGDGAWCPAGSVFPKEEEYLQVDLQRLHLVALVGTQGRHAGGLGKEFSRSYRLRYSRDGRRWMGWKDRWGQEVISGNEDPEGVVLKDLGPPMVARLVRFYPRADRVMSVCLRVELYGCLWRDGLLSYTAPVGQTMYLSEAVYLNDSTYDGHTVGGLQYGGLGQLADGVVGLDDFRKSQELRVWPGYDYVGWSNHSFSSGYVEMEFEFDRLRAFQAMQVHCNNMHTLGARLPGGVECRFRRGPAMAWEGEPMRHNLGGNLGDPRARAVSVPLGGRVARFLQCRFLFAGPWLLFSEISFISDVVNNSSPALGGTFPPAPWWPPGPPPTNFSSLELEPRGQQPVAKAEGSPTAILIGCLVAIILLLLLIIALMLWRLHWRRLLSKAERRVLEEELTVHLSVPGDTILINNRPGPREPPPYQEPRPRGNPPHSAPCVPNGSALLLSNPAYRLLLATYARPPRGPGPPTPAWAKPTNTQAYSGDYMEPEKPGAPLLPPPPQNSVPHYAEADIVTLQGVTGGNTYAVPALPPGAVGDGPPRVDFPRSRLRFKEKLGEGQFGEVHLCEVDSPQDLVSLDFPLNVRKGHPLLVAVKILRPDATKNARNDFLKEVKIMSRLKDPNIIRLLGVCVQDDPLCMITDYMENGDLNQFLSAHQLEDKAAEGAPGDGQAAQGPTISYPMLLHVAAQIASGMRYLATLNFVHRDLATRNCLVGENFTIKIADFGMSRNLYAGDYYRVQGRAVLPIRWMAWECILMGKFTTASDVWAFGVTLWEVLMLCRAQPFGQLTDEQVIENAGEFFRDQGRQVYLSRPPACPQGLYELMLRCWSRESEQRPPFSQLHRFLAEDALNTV

Cc1ccc2c(Nc3cccc(Cl)c3F)nccc2c1NC(=O)c1csc2c(N)ncnc12 [Belvarafenib, 4-amino-N-(1-((3-chloro-2-fluorophenyl)amino)-6-methylisoquinolin-5-yl)thieno[3,2-d]pyrimidine-7-carboxamide]
inhibition at 1 µM [1]: > 90% | tumor burden by bioluminescence imaging (BLI) ([2]; 5 mg/kg p.o. QD): more effective tumor inhibition than the vehicle | Maximum weight loss ([2]; 5 mg/kg p.o. QD, day 39): 33.0 (day 39) % | mOS (median overall survival) ([2]; 5 mg/kg p.o. QD): 34.5 days | tumor burden by bioluminescence imaging (BLI) ([2]; 15 mg/kg p.o. QD): markedly delayed tumor growth as compared to the vehicle | mOS (median overall survival) ([2]; 15 mg/kg p.o. QD): 70.0 days | day from which clinical signs of debility due to tumor growth occurred ([2]; group 2 (5 mg/kg)): 14 days | day from which clinical signs of debility due to tumor growth occurred ([2]; group 3 (15 mg/kg)): 16 days | day of administration from which hair growth showed ([2]; groups 2 and 3 (5 and 15 mg/kg)): 7 days
